From PubChem BioAssay (NCI)
Several values for one entry are separate records, joined by “and”; a condition that tells them apart may be missing. Equal values may be shown once.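 48-hour exposure; five concentrations; linearly interpolated endpoints. At the GI50, growth is halved. TGI marks complete inhibition of growth.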

Assays:
Experiment in all cases: NCI tumour cell line growth inhibition, 48 h
A498 renal = tested on: A498 renal
ACHN renal = tested on: ACHN renal
CAKI-1 renal = tested on: CAKI-1 renal
MDA-MB-231 breast = tested on: MDA-MB-231 breast
OVCAR-3 ovarian = tested on: OVCAR-3 ovarian
SK-OV-3 ovarian = tested on: SK-OV-3 ovarian
SNB-19 CNS = tested on: SNB-19 CNS
U251 CNS = tested on: U251 CNS

| SMILES | GI50 (A498 renal) | TGI (A498 renal) | GI50 (ACHN renal) | TGI (ACHN renal) | GI50 (CAKI-1 renal) | TGI (CAKI-1 renal) | GI50 (MDA-MB-231 breast) | TGI (MDA-MB-231 breast) | GI50 (OVCAR-3 ovarian) | TGI (OVCAR-3 ovarian) | GI50 (SK-OV-3 ovarian) | TGI (SK-OV-3 ovarian) | GI50 (SNB-19 CNS) | TGI (SNB-19 CNS) | GI50 (U251 CNS) | TGI (U251 CNS) |
| --- | --- | --- | --- | --- | --- | --- | --- | --- | --- | --- | --- | --- | --- | --- | --- | --- |
| COc1ccc(-c2[nH]ncc2Nc2cc(OC)c(OC)c(OC)c2)cc1 | 2.98 µM | > 57.4 µM | 10.3 µM | > 100 µM | 5.64 µM | > 100 µM | 3.34 µM | > 100 µM | 0.962 µM | 3.69 µM | 3.09 µM | > 77.8 µM | 4.86 µM | > 100 µM | 2.21 µM | > 100 µM |
| COc1cc(C(=O)n2nc(N)c3c(C)cc(C)nc32)cc(OC)c1OC | > 20.8 µM | > 100 µM | > 100 µM | > 100 µM | > 100 µM | > 100 µM | > 100 µM | > 100 µM | > 88.9 µM | > 100 µM | > 82.4 µM | > 100 µM | > 100 µM | > 100 µM | > 82.9 µM | > 100 µM |
| CSc1nc2c(c(=O)n1C)C(c1ccccc1)C1=C(N2)/C(=C/c2ccccc2)CCC1 (stereo not given) | 16.8 µM | 88.4 µM | 3.56 µM | 50.5 µM | 69 µM | > 100 µM | 17.4 µM | > 100 µM | 4.41 µM | > 100 µM | 25.1 µM | 78.7 µM | 22.4 µM | > 100 µM | 3.99 µM | 34.9 µM |
| O=C(C(=CN1CCN(C(=O)c2ccco2)C1=S)C(=O)c1ccccc1)c1ccccc1 |  |  | 5.75 µM | 16.5 µM | 6.98 µM | 17.2 µM | 7.41 µM | 20.1 µM | 7.32 µM | 23 µM | 41.8 µM | > 50 µM | 29.2 µM | > 50 µM | 2.66 µM | 25.8 µM |
| CNC(=O)c1cc(Oc2ccc(NC(=O)Nc3cc(C(C)(C)C)nn3-c3ccc4ncccc4c3)c(F)c2)ccn1 | 1.26 µM and 0.307 µM | 3.21 µM and 2.42 µM | 0.915 µM and 0.475 µM | 7.47 µM and > 23.6 µM | 0.523 µM and 0.699 µM | 4.65 µM and 4.32 µM | 0.827 µM and 0.963 µM | 7.12 µM and 5.78 µM | 2.36 µM and 2.21 µM | 7.96 µM and 6.35 µM | 1.59 µM and 2.34 µM | 6.59 µM and 7.8 µM | 3.1 µM and 3.09 µM | 8.87 µM and 7.98 µM | 2.72 µM and 2.33 µM | 8.87 µM and 7.22 µM |
| S=C(SSC(=S)N1CCCCC1)N1CCCCC1 |  |  | 15.5 µM | 41 µM | 18 µM | > 100 µM | 15.2 µM | 41.2 µM | 11.3 µM | 24.2 µM | 48.4 µM | > 100 µM | 51 µM | > 100 µM | 12.2 µM | 45.2 µM |
| O=C1/C(=C/c2ccc([N+](=O)[O-])o2)Oc2ccc(Cl)cc21 | 14.4 µM | 34 µM | 1.54 µM | 2.98 µM | 1.7 µM | 3.61 µM | 1.77 µM | 4.12 µM | 1.7 µM | 3.19 µM | 13 µM | 47.2 µM | 3.94 µM | 16.7 µM | 2.02 µM | 4.52 µM |
| O=C1C(Cl)=C(NCCCN(CCCNC2=C(Cl)C(=O)c3ccccc3C2=O)C2=C(Cl)C(=O)c3ccccc3C2=O)C(=O)c2ccccc21 | 19.6 µM | 39.4 µM |  |  |  |  | 1.93 µM |  | 1.71 µM | 5.71 µM | 18.4 µM | 37.9 µM | 3.79 µM | 18.9 µM | 2.66 µM | 6.27 µM |
| Cc1cc(N(CCNc2ccnc3cc(Cl)ccc23)Cc2ccc3c(c2)OCO3)nc(N2CCCC2)n1 | 1.61 µM | 3.94 µM | 1.91 µM | 4.09 µM |  |  | 1.28 µM | 3.27 µM | 1.74 µM | 3.81 µM | 2.63 µM | 8.15 µM | 2.53 µM | 11.3 µM | 1.36 µM | 3.21 µM |
| COC(=O)c1cc2cc(/C=C3/SC(=S)N(N(C(C)=O)C(C)=O)C3=O)oc2n1Cc1ccccc1 |  |  | 18.3 µM | 35.9 µM | 14.2 µM | 40.8 µM | 20.6 µM | 50.4 µM | 19.5 µM | 51 µM | 37.4 µM | 89.9 µM | 27.3 µM | > 100 µM | 12.8 µM | 30.8 µM |
| FC(F)(F)c1cccc(-c2[nH]ncc2-c2nnnn2-c2ccccc2)c1 | 4.28 µM | 17.8 µM | 11.2 µM | 24.5 µM | 5.36 µM | 27.7 µM | 3.2 µM | 12.7 µM | 2.97 µM | 10.9 µM | 6.05 µM | 21.9 µM |  |  | 4.69 µM | 17.1 µM |
| N#CC1=C(N)OC2=C(CCOc3c2ccc2ccccc32)C1c1ccc(Br)cc1 (stereo not given) |  |  | 41.3 µM | > 100 µM | 15.1 µM | 80.6 µM |  |  | 15.1 µM | 39.4 µM | 28.8 µM | > 100 µM | 77.7 µM | > 100 µM |  |  |
| CC1=C(C(=O)Nc2ccc(Cl)c(Cl)c2)C(c2cccc(Cl)c2)NC(=S)N1 (stereo not given) |  |  | 12.4 µM | 37.1 µM | 14.2 µM | > 50 µM | 8.15 µM | 19.3 µM | 10.5 µM | 37.5 µM | 15.2 µM | 33 µM | 10.5 µM | 24.9 µM | 10.7 µM | 29.6 µM |
| Clc1ccc(-c2nc(NCc3ccco3)c3ccccc3n2)c(Cl)c1 | 22 µM | 41 µM | 7.81 µM | 58.3 µM | 8.82 µM | 31 µM |  |  | 11.6 µM | 29.7 µM | 18.6 µM | > 100 µM | 38.4 µM | > 100 µM | 16.5 µM | 47.4 µM |
| CCCCCCCCN=C(NCCCCCCCC)SCc1cccc2ccccc12 | 1.52 µM | 2.9 µM |  |  | 1.56 µM | 2.97 µM | 1.14 µM | 2.55 µM | 1.72 µM | 3.21 µM |  |  | 1.83 µM | 3.45 µM | 1.59 µM | 2.98 µM |
| CCOC(=O)/C=C1/SC(=Nc2ccc(C#N)cc2)N(Cc2ccco2)C1=O | 14.8 µM | 30 µM | 1.78 µM | 3.33 µM |  |  | 4.29 µM | 23.5 µM | 1.82 µM | 3.52 µM | 14.1 µM | 29.9 µM | 3.83 µM | 13.8 µM | 2.07 µM | 4.06 µM |
